Measurements as given in patent US8652836B2, “Defective ribosomal products in blebs (DRibbles) and methods of use to stimulate an immune response” (Providence Health System, priority 2005, dated 2014).
Square brackets hold non-standard residues; d marks the D form. Peptide text beside a SMILES is read from it. * marks the point of attachment. Nle = CCCC[C@H](N)C(=O)O; Cbz = O=C(OCc1ccccc1)*

Tests used:
[1] = system: 293T tumor cells expressing V-GFP-TfR-OVA; assay: In vitro cross-presentation of treated tumor cells by DC to OT-I T cells (CFSE dilution); assay type: cell-based, human; conditions: tumor cells treated as in Example 2, irradiated; FIG. 3
Description: (§1) The autophagy inhibitor […] (3-MA) and the autophagy inducer rapamycin were used to modulate autophagy and observe their effect on human 293T tumor cells expressing V-GFP-TfR-OVA fusion (a peptide containing mutated ubiquitin, GFP (green fluorescent protein), the transmembrane domain of transferrin receptor and chicken ovalbumin). In addition 10 mM NH4Cl was used to inhibit lysosome mediated protein degradation. Cells expressing V-GFP-TfR-OVA were either untreated, treated with 10 mM 3-MA for 24 hours, treated with 10 mM 3-MA and 1 μM Velcade for 24 hours, 50 nM rapamycin for 24 hours, 50 nM rapamycin and 1 μM Velcade for 24 hours, 10 mM NH4Cl for 24 hours, or with 1 μM Velcade and 10 mM NH4Cl for 24 hours. Cell lysates were prepared by resuspending pelleted cells in SDS containing sample lysis buffer and subjected to western blot analysis with anti-GFP antibody.
(§2) 293T tumor cells expressing V-GFP-TfR-OVA were treated as described in Example 2, and used as the source of antigens for cross-presentation in vitro after irradiation (15,000 rad). One million tumor cells were incubated with two million DC for 6 hours before the addition of CFSE labeled naïve T cells from OT-I transgenic mice that recognize peptides derived from OVA protein. The OT-I division as indicated by dilution of CFSE label was used as the readout.

[2] = system: human 293T tumor cells expressing V-GFP-TfR-OVA fusion; assay: Western blot of fusion protein with anti-GFP antibody; assay type: cell-based; conditions: for full-length and short fragments of fusion proteins: 10 mM 3-MA, 1 μM Velcade, 10 mM NH4Cl, compared to untreated control cells
Description: as §1

F10 melanoma cells = assay: Secretion of DRibbles by tumor cells treated with proteasome inhibitor (microscopy); assay type: cell-based, mouse; conditions: 5 μg/ml, 24 hours; FIG. 1A
Description: To prepare tumor-derived DRibbles, one T-150 flask of cultured tumor cells at about 80% confluence (about 30 million cells per flask) were treated for 24 hours with reversible proteasome inhibitor MG132 (5 μg/ml) or ALLN (5 μg/ml) to block proteasome-mediated degradation of ubiquitinated proteins. […] Culture supernatant was collected in a 50 ml conical tube 48 hours later, and whole tumor cells and large cell debris removed by a low speed centrifugation (250 g for 10 minutes) (FIG. 1B). The resulting supernatant was further centrifuged at a high speed (10,000 g for 15 minutes) to pellet DRibbles. The pellets (containing the DRibbles, see FIG. 1C) were washed once by re-suspending in PBS (20 ml) and pelleting at high speed as above. The washed pellets were resuspended in 300 μl PBS (10 μl DRibble=1 million cells) and snap frozen in liquid nitrogen and kept at −80° C. in small aliquots until use.

[3] = under refrigeration; cited from earlier work
[4] = oral administration; cited from earlier work
RMA tumor cells = assay: Priming of gag-specific CD8 T cells by RMA tumor cells, intracellular IFN-γ; assay type: in vivo, mice; conditions: RMA cells treated 5 μM 24 hours
Description: Seven days later, spleen cells were restimulated with either irrelevant D^b binding peptide or the dominant epitope of gag in the presence of blocker of ER/Golgi (brefeldin A) for 6 hours. The percentage of CD8 T cells produced intracellular IFN-γ was then determined by intracellular staining and flow cytometry analysis with antibodies against CD3, CD8, and IFN-γ.

LC3 = assay: Western blot analysis of LC-3 (autophagy marker); assay type: cell-based, human; conditions: 1 μM overnight, 293T cells
Description: To confirm whether Velcade induced autophagy, Western blot analysis of LC-3 was performed. LC3 is an autophagy marker; it converts from its LC3-I-nonlipidated form to the PE-conjugated form LC3-II. 293T were treated with 1 μM Velcade overnight and total cell lysates were subjected to Western blot analysis with anti-LC3 polyclonal antibody.

293T tumor cells = assay: Fluorescence microscopy of GFP-OVA / GFP-LC3 transfected cells; assay type: cell-based, human; conditions: 1 μM
Description: 293T tumor cells were transfected with plasmids encoding Ub-M-GFP-OVA, GFP-LC3 fusion protein, or GFP-LC3 and tdTomato-Ub proteins. Transfected cells were treated with 1 μM Velcade 24 hours later. GFP-OVA or GFP-LC3 fusion proteins were used to visualize the antigens or autophagy membrane in the DRibbles using fluorescence microscopy. Co-tranfection of GFP-LC3 and tdTomato-Ub fusion plasmids was used to visualize accumulation of ubiquitinated DRiPs inside LC3 decorated DRibbles.

[5] = system: 293T cell lines expressing GFP-OVA fusion proteins; assay: Western blot of DRibble lysates; assay type: cell-based, human
Description: Lysates (10 μg) were prepared from DRibbles generated from 293T cell lines expressing different versions of GFP-OVA fusion proteins after Velcade treatment. The lysates were probed with antibodies against GFP, LC3, calrecticulin, HSP90α (cytosolic), and ubiquitin.

[6] = system: 293T cells expressing V-GFP-TfR-OVA fusion protein; assay: Western blot of fusion protein after HSP90 inhibitor and Velcade; assay type: cell-based, human; conditions: 1 μM Velcade 6 hours; 10 μM 17-AAD 16 hour
[7] = system: 293T cells expressing V-GFP-TfR-OVA fusion protein; assay: Cross-presentation of HSP90 inhibitor treated cells; assay type: cell-based, human; conditions: Velcade added to 17-AAD treated cells
Description: as §2
Cross-presentation is analyzed as described in Example 5.

With Cn1cnc(=N)c2ncn([C@@H]3O[C@H](CO)[C@@H](O)[C@H]3O)c21 [3-MA, 3-methyladenosine] the “cross-presentation (OT-I division, CFSE dilution)” value [1] was “severely curtailed” and the “full-length and short fragments of fusion proteins” value ([2]; 24 hours) was “both full-length and short fragments of fusion proteins were increased”.
For CCCC[C@@H](C=O)NC(=O)[C@H](CC(C)C)NC(=O)[C@H](CC(C)C)NC(C)=O [ALLN, N-Acetyl-Leu-Leu-norleucinal] (Ac-Leu-Leu-[Nle]-aldehyde), the “formation of prenuclear vacuoles and secretion of DRibbles” value (F10 melanoma cells) was “induced formation of prenuclear vacuoles and secretion of DRiPs containing blebs (DRibbles)”.
For O.O=P1(N(CCCl)CCCl)NCCCO1 (stereo not shown) [Cyclophosphamide, 2-[bis(2-chloroethyl)amino]tetrahydro-2H-1,3,2 oxazaphosphorine 2-oxide monohydrate], the “stability of reconstituted solution” value [3] is listed as “six” and the bioavailability [4] is listed as “greater than 75%”.
With CC(C)C[C@@H](C=O)NC(=O)[C@H](CC(C)C)NC(=O)[C@H](CC(C)C)NC(=O)OCc1ccccc1 [MG-132, carbobenzyloxy-L-leucyl-L-leucyl-L-leucinal] (Cbz-Leu-Leu-Leu-aldehyde) the “percentage of IFN-γ-producing CD8 T cells, background” value (RMA tumor cells; background) was 0.29% and the “percentage of IFN-γ-producing CD8 T cells” value (RMA tumor cells; spleen cells seven days later restimulated with dominant epitope of gag) was 1.74%.
For Cl.N [NH4Cl], the “cross-presentation (OT-I division, CFSE dilution)” value [1] was “moderate increase of cross-presentation”, the “full-length and short fragments of fusion proteins” value ([2]; 24 hours) was “even greater stabilizing effect of shorter fragments” and the “antigen / protein level detected by Western blot” value ([2]; as restated with the cross-presentation results) was “increased protein level”.
With CC(C)C[C@H](NC(=O)[C@H](Cc1ccccc1)NC(=O)c1cnccn1)B(O)O [Velcade, N-pyrazinecarbonyl-L-phenylalanine-L-leucineboronic acid] the “autophagy induction (LC3-I and LC3-II)” value (LC3) was “induced autophagy in 293T cells”, the “formation of punctate structures” value (293T tumor cells) was “led to formation of cell-associated punctate positive for GFP-OVA or GFP-LC3” and the “amount of short fragments” value ([2]; 1 μM Velcade in the presence of 50 nM rapamycin, 24 hours) was “slightly increased the amount of short fragments”. The “GFP-OVA fusion protein in DRibbles” value [5] was “resulted in large amount GFP-OVA fusion protein in the DRibbles”, the “short-fragments of GFP-TfR-OVA fusion proteins” value [6] was “dramatically increased” and the DRiPs and cross-presentation [7] was “rescued DRiPs but not cross-presentation”.
